In publication PMC12681378, “Transcriptomic and enzymological evidence for plastid peptidoglycan synthesis in the gymnosperm Picea abies” (The Plant Journal, 2025):

Assays:
Type in all cases: biochemical
[1] = molecular target: T1, His_AnMurE (46T) (Nostoc sp. PCC 7120 = FACHB-418, UniProt Q8YWF0); assay: Amplex Red phosphate-release coupled assay; settings: 30 C, pH 7.6, 10 mM MgCl2, ATP, UDP-MurNAc-L-Ala-D-Glu
T1 construct: gene murE; N-terminal His tag (pPROEX); E. coli
T1 sequence (Q8YWF0 1-496): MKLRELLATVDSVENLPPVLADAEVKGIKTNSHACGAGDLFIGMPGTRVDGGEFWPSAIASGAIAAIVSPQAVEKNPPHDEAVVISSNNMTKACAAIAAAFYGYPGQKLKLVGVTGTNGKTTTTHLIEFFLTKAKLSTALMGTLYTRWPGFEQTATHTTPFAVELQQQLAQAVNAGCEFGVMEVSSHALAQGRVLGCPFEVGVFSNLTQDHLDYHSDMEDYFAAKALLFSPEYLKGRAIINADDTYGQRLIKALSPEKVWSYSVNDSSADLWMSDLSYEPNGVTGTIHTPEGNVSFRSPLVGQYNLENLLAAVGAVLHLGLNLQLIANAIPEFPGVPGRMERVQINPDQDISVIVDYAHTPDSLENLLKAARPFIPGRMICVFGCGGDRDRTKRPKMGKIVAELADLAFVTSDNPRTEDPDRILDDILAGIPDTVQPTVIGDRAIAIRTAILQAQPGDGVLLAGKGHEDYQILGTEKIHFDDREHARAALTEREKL

[2] = molecular target: T1, His_AnMurE (46T); assay: inhibition seen in Amplex Red coupled assay; settings: product inhibition; 30 C, pH 7.6
[3] = molecular target: T2, Pseudomonas aeruginosa MurE (Pseudomonas aeruginosa, UniProt Q59650); assay: Amplex Red phosphate-release coupled assay; NADH assay; settings: 30 C, pH 7.6, 10 mM MgCl2, ATP
T2 construct: cloned into pET21; E. coli
T2 sequence (Q59650 1-487): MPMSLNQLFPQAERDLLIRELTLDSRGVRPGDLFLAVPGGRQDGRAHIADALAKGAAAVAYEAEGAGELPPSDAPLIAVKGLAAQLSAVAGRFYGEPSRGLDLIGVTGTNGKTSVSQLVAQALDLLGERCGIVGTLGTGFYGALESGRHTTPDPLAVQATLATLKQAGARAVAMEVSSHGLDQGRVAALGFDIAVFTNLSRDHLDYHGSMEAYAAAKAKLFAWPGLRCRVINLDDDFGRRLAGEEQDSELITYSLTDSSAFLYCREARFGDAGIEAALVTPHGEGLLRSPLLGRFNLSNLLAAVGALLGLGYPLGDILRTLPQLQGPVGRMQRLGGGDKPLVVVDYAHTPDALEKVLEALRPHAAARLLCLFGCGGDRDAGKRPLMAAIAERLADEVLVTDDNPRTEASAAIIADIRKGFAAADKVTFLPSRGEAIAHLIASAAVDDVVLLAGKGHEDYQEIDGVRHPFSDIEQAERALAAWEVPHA

[4] = molecular target: T3, PpMurE-TP_Avi_His (1.1T) (Physcomitrium patens, UniProt Q3LHI5); assay: as above; settings: 30 C, pH 7.6, 10 mM MgCl2, ATP
T3 construct: gene MurE; from Leu63; transit peptide removed; E. coli

[5] = molecular target: T4, Streptococcus pneumoniae MurE (Streptococcus pneumoniae, UniProt Q8CWQ5); assay: Amplex Red phosphate-release coupled assay; settings: 30 C, pH 7.6, 10 mM MgCl2, ATP
T4 construct: cloned into pET21; E. coli
T4 sequence (Q8CWQ5 1-481): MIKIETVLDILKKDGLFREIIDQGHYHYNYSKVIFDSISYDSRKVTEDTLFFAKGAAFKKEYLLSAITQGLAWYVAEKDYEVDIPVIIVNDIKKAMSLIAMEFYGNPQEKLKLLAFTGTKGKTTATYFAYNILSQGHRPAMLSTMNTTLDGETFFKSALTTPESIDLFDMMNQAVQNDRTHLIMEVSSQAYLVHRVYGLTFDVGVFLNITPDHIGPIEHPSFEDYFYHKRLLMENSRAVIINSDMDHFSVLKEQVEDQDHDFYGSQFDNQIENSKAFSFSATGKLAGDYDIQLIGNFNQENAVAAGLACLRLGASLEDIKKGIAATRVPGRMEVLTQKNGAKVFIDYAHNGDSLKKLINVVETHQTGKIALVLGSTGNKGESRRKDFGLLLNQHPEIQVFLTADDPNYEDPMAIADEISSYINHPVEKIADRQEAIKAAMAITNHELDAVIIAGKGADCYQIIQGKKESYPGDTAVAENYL

T3 sequence (Q3LHI5 entry or part of it): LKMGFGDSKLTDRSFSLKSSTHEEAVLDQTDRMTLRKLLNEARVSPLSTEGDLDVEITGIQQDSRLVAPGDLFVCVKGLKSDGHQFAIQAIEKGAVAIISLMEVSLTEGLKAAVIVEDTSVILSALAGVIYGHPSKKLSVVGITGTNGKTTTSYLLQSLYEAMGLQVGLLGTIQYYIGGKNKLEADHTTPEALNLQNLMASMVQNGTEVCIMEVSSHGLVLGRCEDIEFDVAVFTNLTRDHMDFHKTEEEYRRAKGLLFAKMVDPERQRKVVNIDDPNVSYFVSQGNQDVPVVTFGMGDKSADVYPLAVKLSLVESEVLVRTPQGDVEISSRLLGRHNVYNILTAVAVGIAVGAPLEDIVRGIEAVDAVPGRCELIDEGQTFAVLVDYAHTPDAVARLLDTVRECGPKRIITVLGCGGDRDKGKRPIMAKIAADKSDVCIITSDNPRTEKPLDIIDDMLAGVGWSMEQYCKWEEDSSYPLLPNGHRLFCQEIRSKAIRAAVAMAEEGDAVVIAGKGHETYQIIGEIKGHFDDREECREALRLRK

With `N[C@@H](CSC[C@H](N)C(=O)O)C(=O)O` (racemic) [D, L-lanthionine] the “Amplex Red phosphate-release coupled assay” value [1] was “D, L‐lanthionine was equally as efficiently incorporated as D, L‐DAP by Anabaena MurE”.

In the case of `Nc1ncnc2c1ncn2[C@@H]1O[C@H](COP(=O)(O)OP(=O)(O)O)[C@@H](O)[C@H]1O` [ADP], the “inhibition seen in Amplex Red coupled assay” value [2] is reported as “an observed inhibitory effect of ADP on AnMurE in the Amplex Red assay”.

In the case of `N[C@H](CCC[C@H](N)C(=O)O)C(=O)O` [D, L-diaminopimelate], the “Amplex Red phosphate-release coupled assay; NADH assay” value ([3]; UDP-MurNAc-L-Ala-D-Glu) is reported as “an order of magnitude less active than Pseudomonas aeruginosa MurE”, the “Amplex Red phosphate-release coupled assay” value [1] is reported as “D, L‐lanthionine was equally as efficiently incorporated as D, L‐DAP by Anabaena MurE” and the “Amplex Red phosphate-release coupled assay; NADH assay” value ([4]; UDP-MurNAc-L-Ala-D-Glu) is reported as “predominant substrate for both the moss, PpMurE, and cyanobacterial, AnMurE, ligases”.

With `NCCCC[C@H](N)C(=O)O` [L-lysine] the “Amplex Red phosphate-release coupled assay” value ([5]; UDP-MurNAc-L-Ala-D-Glu) was “able to utilize both L‐hydroxylysine and L‐lysine as substrates”.

In the case of `CC(=O)N[C@H]1[C@@H](OP(=O)(O)OP(=O)(O)OC[C@H]2O[C@@H](n3ccc(=O)[nH]c3=O)[C@H](O)[C@@H]2O)O[C@H](CO)[C@@H](O)[C@@H]1O[C@H](C)C(=O)N[C@@H](C)C(=O)N[C@H](CCC(=O)O)C(=O)O` [UDP-N-acetylmuramoyl-L-alanyl-D-glutamate], the “Amplex Red phosphate-release coupled assay; NADH assay” value ([3]; D,L-DAP) is reported as “D, L‐DAP) and UDP‐N‐acetylmuramoyl‐ L‐alanyl‐D‐glutamate as substrates”, the “Amplex Red phosphate-release coupled assay” value ([5]; L-lysine) is reported as “L‐lysine as substrates with UDP‐N‐acetylmuramoyl‐L‐alanyl‐D‐glutamate as the acceptor” and the “Amplex Red phosphate-release coupled assay; NADH assay” value ([4]; D,L-DAP) is reported as “UDP‐N‐acetylmuramoyl‐L‐alanyl‐D‐glutamate as the recipient molecule”.
